Laboratory results reported in US8940756B2, “Dihydronaphthyridines and related compounds useful as kinase inhibitors for the treatment of proliferative diseases” (Deciphera Pharmaceuticals, Inc., priority 2012, dated 2015).

Legend:
[1] = target: Phospho-KIT (Tyr719) in GIST48 cells (Homo sapiens, UniProt P10721); test: GIST48 KIT Western Blot; type: cell-based; conditions: 4 hours, read-out: pKIT suppression by western blot analysi GIST48
Protocol: (§1) GIST48, GIST430, and GIST882 cells were obtained from J. Fletcher (Brigham and Women's Hospital, Boston, Mass.). GIST T1 cells were obtained from B. Rubin (Cleveland Clinic, Cleveland, Ohio) and Professor Takahiro Taguchi (Kochi Medical School, Nankoku, Kochi, Japan). […] GIST430 cells were grown in Ham's F10 medium supplemented with 15% characterized fetal bovine serum (Invitrogen, Carlsbad, Calif.), 30 mg/L bovine pituitary extract (BD Biosciences, San Jose, Calif.), 0.5% Mito+ serum extender (BD Biosciences, San Jose, Calif.), 1 unit/mL penicillin G, 1 μg/ml streptomycin, and 0.29 mg/mL L-glutamine at 37° C., 5% CO2, 95% humidity. GIST T1 cells were grown in DMEM medium supplemented with 10% characterized fetal bovine serum (Invitrogen, Carlsbad, Calif.), 1 unit/mL penicillin G, 1 ng/ml streptomycin, and 0.29 mg/mL L-glutamine at 37° C., 5% CO2, and 95% humidity. Cells were allowed to expand until reaching 70-95% confluence at which point they were subcultured or harvested for assay use.
(§2) Two hundred fifty thousand cells were added per well in a 24-well tissue-culture treated plate. Cells were then incubated overnight at 37° C., 5% CO2, 95% humidity. Medium was aspirated, cells were washed with PBS, and serum-free RPMI1640 medium was added. A serial dilution of test compound was added to plates containing cells and plates were incubated for 4 hours at 37° C., 5% CO2, 95% humidity. Cells were washed with PBS, then lysed. Cell lysates were separated by SDS-PAGE and transferred to PVDF. Phospho-KIT (Tyr719) was detected using an antibody from Cell Signaling Technology (Beverly, Mass.), ECL Plus detection reagent (GE Healthcare, Piscataway, N.J.) and a Molecular Devices Storm 840 phosphorimager in fluorescence mode. Blots were stripped and probed for total KIT using an antibody from Santa Cruz Biotech (Santa Cruz, Calif.). IC50 values were calculated using Prism software (Graphpad, San Diego, Calif.).

[2] = target: Phospho-KIT (Tyr719) in GIST430 cells (Homo sapiens, UniProt P10721); test: GIST430 KIT Western Blot; type: cell-based; conditions: 4 hours, read-out: pKIT suppression by western blot analysi GIST430
Sequence of Phospho-KIT (Tyr719) in GIST430 cells (P10721 with tags, fused parts or gaps DEL560-576/V654A, form open): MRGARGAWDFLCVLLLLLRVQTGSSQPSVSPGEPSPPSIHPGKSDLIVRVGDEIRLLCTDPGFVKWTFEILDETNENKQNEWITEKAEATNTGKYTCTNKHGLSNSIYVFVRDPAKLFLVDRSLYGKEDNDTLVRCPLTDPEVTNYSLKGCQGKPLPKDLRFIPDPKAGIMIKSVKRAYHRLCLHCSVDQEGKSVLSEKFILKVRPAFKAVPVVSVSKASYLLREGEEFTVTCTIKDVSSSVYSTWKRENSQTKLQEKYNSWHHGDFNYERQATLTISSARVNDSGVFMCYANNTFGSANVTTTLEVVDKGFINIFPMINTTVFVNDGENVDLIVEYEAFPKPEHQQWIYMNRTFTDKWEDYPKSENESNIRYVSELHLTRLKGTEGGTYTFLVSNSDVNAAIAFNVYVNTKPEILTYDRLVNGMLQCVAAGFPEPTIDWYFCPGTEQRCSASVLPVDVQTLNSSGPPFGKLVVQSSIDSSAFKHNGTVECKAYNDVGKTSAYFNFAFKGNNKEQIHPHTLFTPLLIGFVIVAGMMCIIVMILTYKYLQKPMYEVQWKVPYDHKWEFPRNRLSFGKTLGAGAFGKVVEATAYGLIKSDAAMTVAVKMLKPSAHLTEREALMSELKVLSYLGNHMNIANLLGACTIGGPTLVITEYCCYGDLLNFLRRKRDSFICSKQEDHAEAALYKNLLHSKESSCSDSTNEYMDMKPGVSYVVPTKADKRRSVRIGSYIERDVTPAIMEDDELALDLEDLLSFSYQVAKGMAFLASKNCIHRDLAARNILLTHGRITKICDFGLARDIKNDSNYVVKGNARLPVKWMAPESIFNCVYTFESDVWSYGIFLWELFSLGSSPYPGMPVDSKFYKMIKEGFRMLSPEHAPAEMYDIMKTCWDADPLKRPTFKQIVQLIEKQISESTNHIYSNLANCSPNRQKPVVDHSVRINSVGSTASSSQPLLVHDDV
Protocol: as §1
as §2, with “One” for “Two”, “Ham's F10” for “RPMI1640”

Sequence of Phospho-KIT (Tyr719) in GIST48 cells (P10721 whole entry V560D/D820A, form open): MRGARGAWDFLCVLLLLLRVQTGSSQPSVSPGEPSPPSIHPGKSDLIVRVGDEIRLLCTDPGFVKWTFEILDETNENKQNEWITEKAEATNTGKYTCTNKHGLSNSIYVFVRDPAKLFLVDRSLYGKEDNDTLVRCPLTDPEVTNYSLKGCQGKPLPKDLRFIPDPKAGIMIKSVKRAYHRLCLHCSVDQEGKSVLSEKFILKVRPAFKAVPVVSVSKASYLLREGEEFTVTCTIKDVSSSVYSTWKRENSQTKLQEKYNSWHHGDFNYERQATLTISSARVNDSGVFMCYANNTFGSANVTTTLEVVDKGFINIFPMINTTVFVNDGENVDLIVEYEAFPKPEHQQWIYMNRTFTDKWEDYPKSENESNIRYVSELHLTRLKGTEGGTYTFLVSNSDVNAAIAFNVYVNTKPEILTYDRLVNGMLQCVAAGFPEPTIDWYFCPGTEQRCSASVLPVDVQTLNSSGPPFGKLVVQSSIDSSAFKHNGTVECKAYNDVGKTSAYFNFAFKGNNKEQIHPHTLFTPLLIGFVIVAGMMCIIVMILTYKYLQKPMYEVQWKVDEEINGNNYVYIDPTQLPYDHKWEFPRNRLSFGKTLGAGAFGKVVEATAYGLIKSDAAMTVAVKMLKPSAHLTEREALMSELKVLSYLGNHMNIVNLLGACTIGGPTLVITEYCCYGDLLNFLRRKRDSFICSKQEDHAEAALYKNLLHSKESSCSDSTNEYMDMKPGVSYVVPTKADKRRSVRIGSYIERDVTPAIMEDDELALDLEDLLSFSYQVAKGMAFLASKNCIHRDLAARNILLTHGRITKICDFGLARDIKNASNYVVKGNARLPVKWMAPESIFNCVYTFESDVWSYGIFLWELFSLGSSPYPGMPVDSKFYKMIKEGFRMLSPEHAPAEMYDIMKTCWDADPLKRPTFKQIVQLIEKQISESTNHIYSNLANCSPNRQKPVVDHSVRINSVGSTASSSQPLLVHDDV

Structure (SMILES) | IC50 [1] [nM] | IC50 [2] [nM]
CCn1c(=O)c(-c2cc(NC(=O)Nc3cc(F)cc(F)c3)c(F)cc2Cl)cc2cnc(NC(C)=O)cc21 [Example 67, N-(3-(2-chloro-5-(3-(3,5-difluorophenyl)ureido)-4-fluorophenyl)-1-ethyl-2-oxo-1,2-dihydro-1,6-naphthyridin-7-yl)acetamide] | < 10 | < 10
CNc1cc2c(cn1)cc(-c1cc(NC(=O)Nc3cccc(F)c3)c(F)cc1Cl)c(=O)n2C(C)C [Example 77, 1-(4-chloro-2-fluoro-5-(1-isopropyl-7-(methylamino)-2-oxo-1,2-dihydro-1,6-naphthyridin-3-yl)phenyl)-3-(3-fluorophenyl)urea] | 10 to 100 | 10 to 100
CCn1c(=O)c(-c2cc(NC(=O)Nc3ccccc3)c(F)cc2Cl)cc2cnc(NC(=O)N3CC(O)C3)cc21 [Example 81, N-(3-(2-chloro-4-fluoro-5-(3-phenylureido)phenyl)-1-ethyl-2-oxo-1,2-dihydro-1,6-naphthyridin-7-yl)-3-hydroxyazetidine-1-carboxamide] | 10 to 100 | 10 to 100
CCn1c(=O)c(-c2cc(NC(=O)Nc3ccccc3)c(F)cc2Cl)cc2cnc(NC(=O)N3CC[C@@H](N(C)C)C3)cc21 [Example 84, (R)—N-(3-(2-chloro-4-fluoro-5-(3-phenylureido)phenyl)-1-ethyl-2-oxo-1,2-dihydro-1,6-naphthyridin-7-yl)-3-(dimethylamino)pyrrolidine-1-carboxamide] | 10 to 100 | 10 to 100
CC(=O)Nc1cc2c(cn1)cc(-c1cc(NC(=O)Nc3ccccc3)c(F)cc1Cl)c(=O)n2C(C)C [Example 86, N-(3-(2-chloro-4-fluoro-5-(3-phenylureido)phenyl)-1-isopropyl-2-oxo-1,2-dihydro-1,6-naphthyridin-7-yl)acetamide] | < 10 | 10 to 100
CCn1c(=O)c(-c2cc(NC(=O)Nc3ccc(F)c(CN4CCN(C)CC4)c3)c(F)cc2Cl)cc2cnc(NC)cc21 [Example 87] | 10 to 100 | 100 to 1000
CCn1c(=O)c(-c2cc(NC(=O)Nc3ccccc3)c(F)cc2Cl)cc2cnc(NC(=O)N3CC(N(C)C)C3)cc21 [Example 102, N-(3-(2-chloro-4-fluoro-5-(3-phenylureido)phenyl)-1-ethyl-2-oxo-1,2-dihydro-1,6-naphthyridin-7-yl)-3-(dimethylamino)azetidine-1-carboxamide] | 10 to 100 | 10 to 100

Continued, values first:

IC50 [1] [nM] | IC50 [2] [nM] | Structure (SMILES)
10 to 100 | 10 to 100 | CCn1c(=O)c(-c2cc(NC(=O)Nc3csc4ccccc34)c(F)cc2C)cc2cnc(NC)cc21 [Example 59, 1-(benzo[b]thiophen-3-yl)-3-(5-(1-ethyl-7-(methylamino)-2-oxo-1,2-dihydro-1,6-naphthyridin-3-yl)-2-fluoro-4-methylphenyl)urea]
> 1000 | 10 to 100 | CCn1c(=O)c(-c2cc(NC(=O)Nc3cc(F)cc(F)c3)c(F)cc2C)cc2cnc(NC)cc21 [Example 60, 1-(3,5-difluorophenyl)-3-(5-(1-ethyl-7-(methylamino)-2-oxo-1,2-dihydro-1,6-naphthyridin-3-yl)-2-fluoro-4-methylphenyl)urea]
> 1000 | 10 to 100 | CCn1c(=O)c(-c2cc(NC(=O)Nc3cc(F)ccc3F)c(F)cc2C)cc2cnc(NC)cc21 [Example 61, 1-(2,5-difluorophenyl)-3-(5-(1-ethyl-7-(methylamino)-2-oxo-1,2-dihydro-1,6-naphthyridin-3-yl)-2-fluoro-4-methylphenyl)urea]
100 to 1000 | 10 to 100 | CCn1c(=O)c(-c2cc(NC(=O)Nc3cc(F)cc(F)c3)c(F)cc2F)cc2cnc(NC)cc21 [Example 63]
100 to 1000 | 10 to 100 | CCn1c(=O)c(-c2cc(NC(=O)Nc3cc(F)ccc3F)c(F)cc2Cl)cc2cnc(NC)cc21 [Example 68, 1-(4-chloro-5-(1-ethyl-7-(methylamino)-2-oxo-1,2-dihydro-1,6-naphthyridin-3-yl)-2-fluorophenyl)-3-(2,5-difluorophenyl)urea]
10 to 100 | < 10 | CCn1c(=O)c(-c2cc(NC(=O)Nc3ccccc3)c(F)cc2Cl)cc2cnc(NC(=O)N(C)C)cc21 [Example 70, 3-(3-(2-chloro-4-fluoro-5-(3-phenylureido)phenyl)-1-ethyl-2-oxo-1,2-dihydro-1,6-naphthyridin-7-yl)-1,1-dimethylurea]
10 to 100 | 10 to 100 | CCn1c(=O)c(-c2cc(NC(=O)Nc3ccccc3)c(F)cc2Cl)cc2cnc(NC(=O)OC)cc21 [Example 73, methyl (3-(2-chloro-4-fluoro-5-(3-phenylureido)phenyl)-1-ethyl-2-oxo-1,2-dihydro-1,6-naphthyridin-7-yl)carbamate]
> 1000 | 10 to 100 | CCn1c(=O)c(-c2cc(NC(=O)Nc3ccccc3)c(F)cc2C)cc2cnc(NC(=O)N(C)C)cc21 [Example 101, 3-(1-ethyl-3-(4-fluoro-2-methyl-5-(3-phenylureido)phenyl)-2-oxo-1,2-dihydro-1,6-naphthyridin-7-yl)-1,1-dimethylurea]
100 to 1000 | 10 to 100 | CCn1c(=O)c(-c2cc(NC(=O)Nc3cc(F)cc(F)c3)c(F)cc2C)cc2cnc(NC(=O)N(C)C)cc21 [Example 108, 3-(3-(5-(3-(3,5-difluorophenyl)ureido)-4-fluoro-2-methylphenyl)-1-ethyl-2-oxo-1,2-dihydro-1,6-naphthyridin-7-yl)-1,1-dimethylurea]
